Measured values taken from patent US11717536B2, “Treatment for periodontitis” (THE UNIVERSITY OF MELBOURNE, priority 2017, dated 2023).
Marks after values point to notes of the source that are not given here.

Experiments:
Leptotrichia wadei = assay: Clinical trial: plaque microbial analysis, Leptotrichia wadei; format: in vivo; details: 18.8 mg CPP-ACP sugar-free gum, 20 min six times per day, 14 days, vs no gum chewing; supragingival plaque
Source text: (§1) Following the completion of the examination and supragingival plaque collection, participants received a supragingival scaling, clean and prophylaxis of all their teeth. At the completion of the last examination for leg 3, each participant received a professional fluoride treatment.
(§2) Participants had all supragingival plaque collected from the buccal surfaces of their maxillary molars (teeth 17, 16, 26 & 27) with a sterile scaling instrument. The plaque samples from each tooth were placed in separate sterile tubes, to give four samples per participant.
(§3) Genomic DNA was extracted from the plaque using a combination of mechanical disruption of the cells via a Precellys homogeniser and the chemical extraction and purification of the genomic DNA via the PowerLyzer PowerSoil DNA Isolation Kit (MoBio). Quantitation of the extracted DNA was achieved using a Qubit dsDNA High Sensitivity Assay kit (ThermoFisher), before 5 ng DNA was used as template in a PCR reaction that amplified the V4 variable region of the 16S ribosomal RNA gene and individually barcoded the PCR product from each sample. The barcoded DNA was then sequenced using an Ion Torrent Personal Genome machine and Torrent Suite™ Software (ThermoFisher).
(§4) Analysis of the resulting sequence of the 16S ribosomal RNA gene enabled identification of the bacterial population present in each sample, down to the species level. […]

Leptothrichia shahii = assay: Clinical trial: plaque microbial analysis, Leptothrichia shahii; format: in vivo; details: 18.8 mg CPP-ACP sugar-free gum, 20 min six times per day, 14 days, vs no gum chewing; supragingival plaque
Source text: as §1, §2, §3, §4

Leptotrichia buccalis = assay: Clinical trial: plaque microbial analysis, Leptotrichia buccalis; format: in vivo; details: 18.8 mg CPP-ACP sugar-free gum, 20 min six times per day, 14 days, vs no gum chewing; supragingival plaque
Source text: as §1, §2, §3, §4

Lautropia mirabilis = assay: Clinical trial: plaque microbial analysis, Lautropia mirabilis; format: in vivo; details: 18.8 mg CPP-ACP sugar-free gum, 20 min six times per day, 14 days, vs no gum chewing; supragingival plaque
Source text: as §1, §2, §3, §4

[1] = test system: Veillonella parvula (ATCC 17745); assay: Six species polymicrobial biofilm in constant-depth film fermenter, species composition: V. parvula; format: cell-based
Protocol: To model supragingival plaque six representative oral bacterial species, Streptococcus sanguinis (NCTC 7863), Streptococcus mutans Ingbritt, Actinomyces naeslundii (NCTC 10301), Veillonella parvula (ATCC 17745), Lactobacillus casei (NCDO 161) and Fusobacterium nucleatum (ATCC 10953) (Table 5) were cultured as a polymicrobial biofilm on a human enamel substratum in a constant-depth film fermenter (CDFF; Cardiff University, UK). The CDFF was housed in a 37° C. incubator under anaerobic conditions which were maintained by a constant flow of 5% CO2 in N2 at 1 L/h. The CDFF contained 15 removable polytetrafluoroethylene (PTFE) pans on a circular platform that was rotated at a constant speed of three rpm. The biofilms were grown on three enamel blocks (see below) in each PTFE pan using an artificial saliva medium (ASM, 2.5 g/L mucin type II (porcine, gastric, Sigma), 2.0 g/L bacteriological peptone (Oxoid), 2.0 g/L tryptone (Oxoid), 1.0 g/L yeast extract (Oxoid), 0.35 g/L NaCl, 0.2 g/L KCl, 0.2 mg/L vitamin K, 1 mg/L haemin and 0.1 g/L cysteine hydrochloride) at a constant flow rate of 30 mL/h. Prior to inoculation, the CDFF pan surfaces were conditioned for 24 h with ASM at a flow rate of 10 mL/h (McBain et al (2003) J Appl Microbiol. 94(4):655-66). In order to mimic in vivo bacterial growth conditions in the oral cavity with dietary sugar intake and to provide a high cariogenic challenge, a 1% (w/v) sucrose solution in ASM was pumped into the CDFF four times a day at four hourly intervals with a flow rate of 30 mL/h for 10 min.
Three treatments were applied to the polymicrobial biofilms: 290 ppm fluoride with 220 ppm fluoride as SnF2 and 70 ppm fluoride as NaF (referred to as SnF2), 2% CPP-ACP and 2% CPP-ACP-SnF2. […]
For each timepoint, DNA was extracted separately from 8-9 enamel blocks using PowerLyzer® PowerSoil® DNA Isolation Kits (MoBio Laboratories) following the manufacturers “Vacuum Protocol” with a Precellys® bead homogeniser (Bertin Technologies). Samples were quantified using a Qubit™ dsDNA HS assay kit (Life Technologies) before being stored at −80° C. […]

## Casein phosphopeptide-amorphous calcium phosphate [CPP-ACP]
Leptotrichia wadei
  % decrease in relative abundance, Leptotrichia wadei: 91% (p < 0.001)
Leptothrichia shahii
  % decrease in relative abundance, Leptothrichia shahii: 73% (p < 0.01)
Leptotrichia buccalis
  % decrease in relative abundance, Leptotrichia buccalis: 76% (p < 0.05)
Lautropia mirabilis
  % decrease in relative abundance, Lautropia mirabilis: 70% (p < 0.05)
[1]; 19 days, mean ± standard deviation, n = 5-21
  V. parvula as a percentage of total bacteria in the biofilm: 6.71 ± 0.89^c %
[1]; twice daily treatment, day 19
  change in abundance of V. parvula relative to the control (in words): remained relatively constant
